# Laboratory results as given in US11926594B1, “6′-(3-bromophenyl)-2′-ethoxy-3,4′-bipyridine-3′-carbonitrile as an antioxidant compound” (KING FAISAL UNIVERSITY, priority 2023, dated 2024).
# Assay: DPPH radical scavenging antioxidant test
# Type: biochemical
# Settings: 517 nm; for Inhibition (radical scavenging inhibition): compound 3 μM in ethanol, 0.2 mL DPPH (0.75 mM), 30 minutes in the dark
# Method: The antioxidant activity of 6′-(3-bromophenyl)-2′-ethoxy-3,4′-bipyridine-3′-carbonitrile was investigated by 2,2-diphenyl-1-picrylhydrazyl (DPPH) in vitro tests that employ vitamin C as the positive control.
# The antioxidant properties of the 6′-(3-bromophenyl)-2′-ethoxy-3,4′-bipyridine-3′-carbonitrile compound were studied by adding 0.2 mL DPPH (0.75 mM)) to 6′-(3-bromophenyl)-2′-ethoxy-3,4′-bipyridine-3′-carbonitrile (3 μM) (4) in ethanol. After 30 minutes of incubation in the dark, the absorbance was read against a blank at 517 nm. Ascorbic acid (vitamin C) was used as standard antioxidants (positive control). A blank sample was prepared by 0.2 mL of DPPH in 3 mL ethanol. A negative control sample was run using ethanol instead of the sample. The radical scavenging inhibition was calculated using the following equation: […]
Compound,"antioxidant potential (DPPH) compared to vitamin C (DPPH in vitro test, vitamin C as positive control)",Inhibition (radical scavenging inhibition) [%]
"CCOc1nc(-c2cccc(Br)c2)cc(-c2cccnc2)c1C#N [Product 4, 6′-(3-bromophenyl)-2′-ethoxy-3,4′-bipyridine-3′-carbonitrile]",high potential as an antioxidant compared to vitamin C,48
"O=C1O[C@H]([C@@H](O)CO)C(O)=C1O [vit c, Ascorbic acid, reference compound]",,74
